Literature values in US20110195928A1, “Administration of Copper to an Animal” (priority 2001, published 2011).

Details: general statement of the description

## copper edtate [edtates]
  Solubility in water: insoluble
